Assay results reported in PubChem BioAssay (NCI).
Values joined by “and” are separate entries in the source; they are usually repeats but may differ in a detail not shown here. Equal entries are not always repeated.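 Test compounds were applied to cells in 96-well plates for 48 hours at 5 doses. GI50 = concentration required for 50% inhibition of growth. Definition used: TGI = concentration required for complete inhibition of growth.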

What was measured:
Experiment in all cases: inhibition of tumour cell growth, NCI panel, 48 h
KM12 colon = system: KM12 colon
M14 melanoma = system: M14 melanoma
SF-539 CNS = system: SF-539 CNS
SK-MEL-2 melanoma = system: SK-MEL-2 melanoma
SNB-19 CNS = system: SNB-19 CNS
SNB-75 CNS = system: SNB-75 CNS
SW-620 colon = system: SW-620 colon
UACC-257 melanoma = system: UACC-257 melanoma
NCI-H460 lung = system: NCI-H460 lung
T-47D breast = system: T-47D breast

SMILES | TGI (KM12 colon) [µM] | TGI (M14 melanoma) | TGI (SF-539 CNS) | TGI (SK-MEL-2 melanoma) | TGI (SNB-19 CNS) | TGI (SNB-75 CNS) | TGI (SW-620 colon) | TGI (UACC-257 melanoma) | TGI (NCI-H460 lung) | GI50 (KM12 colon) [µM] | GI50 (M14 melanoma) | GI50 (SF-539 CNS) | GI50 (SK-MEL-2 melanoma) | GI50 (SNB-75 CNS) | GI50 (SW-620 colon) [µM] | GI50 (T-47D breast) [µM] | TGI (T-47D breast) | GI50 (UACC-257 melanoma) [µM] | GI50 (NCI-H460 lung) | GI50 (SNB-19 CNS) [µM]
COC(=O)CC1(O)C(=O)OCc2c1cc1n(c2=O)Cc2c-1nc1ccccc1c2OC (stereo unspecified) | > 100 | 32.2 µM | 0.681 µM | 74.6 µM | 66.2 µM | 3.56 µM | > 100 µM | > 100 µM |  |  |  |  |  |  |  |  |  |  |  | 
CC1NOC(=O)C1N=Nc1cccc(Cl)c1 (stereo unspecified) | > 100 | > 100 µM | > 100 µM | 47.4 µM | > 100 µM | 92.2 µM | 23.4 µM | > 100 µM | > 100 µM |  |  |  |  |  |  |  |  |  |  | 
C=CCC(N[C@@H](CO)c1ccccc1)c1ccc2ccccc2n1 (stereo partly specified) | > 100 | > 100 µM | > 100 µM | > 100 µM |  | > 100 µM | > 100 µM | > 100 µM |  | > 100 | > 100 µM | > 100 µM | > 100 µM | 51.2 µM | > 100 | 61.1 | > 100 µM | 32.4 |  | 
N[C@@H]1CCCN(c2c(Br)cnc3[nH]cc(NC(=O)C4CC4)c23)C1 | > 100 |  | 0.503 µM | > 100 µM | > 100 µM | 7.54 µM | > 100 µM | > 100 µM | > 100 µM | 0.67 |  | 0.0809 µM | 0.492 µM | 1.53 µM | 2.06 | 38.2 | > 100 µM |  | 0.785 µM | 0.692
O=C1/C(=C/c2ccc(Cl)cc2)CCC1CNc1ccc(Cl)cc1 (stereo unspecified) | 11.7 | 22.8 µM | 23.3 µM | 58.5 µM | 35.7 µM | 85.2 µM | 11.4 µM | 32.4 µM | > 100 µM |  |  |  |  |  |  |  |  |  |  | 
COc1ccc(/C=C/C(=N\NC(=O)c2ccccc2)c2sc(Nc3ccc([N+](=O)[O-])cc3)nc2C)cc1OC | 47.5 | 28.9 µM | 69.8 µM | 33 µM | 32.5 µM | 17.8 µM | > 100 µM | 28.1 µM | 41.2 µM |  |  |  |  |  |  |  |  |  |  | 
CN(C)CCCN1c2ccccc2Sc2ccc(C(F)(F)F)cc21 |  |  |  | 3.69 µM and 30.5 µM | 3.27 µM and 28.8 µM and 30.3 µM | 3.51 µM and 26 µM and 24.8 µM |  | 3.49 µM and 29.5 µM and 26.7 µM |  | 1.65 |  | 1.83 µM | 1.79 µM | 1.32 µM | 1.58 | 1.4 | 3.18 µM and 29.1 µM | 1.62 | 1.6 µM | 1.71
COC(=O)Cc1cc(=O)n2c3ccccc3n(C)c2c1C#N | > 100 | > 100 µM | > 100 µM | > 100 µM | > 100 µM | > 100 µM | > 100 µM | > 100 µM | > 100 µM |  |  |  |  |  |  |  |  |  |  | 
C/C=C/C=C/c1cc2cc3c(c(O)c2c(=O)[nH]1)C1(CC3)C(O)=c2c(=O)c3c(=O)cc(OC)c(=O)c=3c(=O)c2=C1O (stereo unspecified) | 16.5 | 3.24 µM and 9.06 µM | 2.48 µM and 10.6 µM | 14.2 µM and 4.86 µM | 14.5 µM and 13.9 µM | 0.511 µM and 1.72 µM | 1.47 µM and 13 µM | 1.87 µM and 6.45 µM | 15.6 µM and 12 µM |  | 0.315 µM and 0.977 µM | 0.363 µM and 2.33 µM | 0.249 µM and 0.885 µM | 0.0567 µM and 0.545 µM |  |  |  |  | 0.192 µM and 0.985 µM | 
COc1cc(-c2nc(-c3ccccc3)c(-c3ccccc3)[nH]2)cc(OC)c1O | 30.4 |  | 30.8 µM | 35.5 µM | 52.9 µM | 26.4 µM | 33.1 µM | 44.8 µM | 36.3 µM | 15.1 |  | 15.8 µM | 19.8 µM | 11.2 µM | 16.6 | 13.5 | 38.7 µM | 21.7 | 17.3 µM | 20.8
C=CCNC(=S)NNC(=O)c1c(C)nc2sccn12 | > 100 |  | > 100 µM | > 100 µM | > 100 µM |  | > 100 µM | > 100 µM | > 100 µM |  |  |  |  |  |  |  |  |  |  | 
CC(=O)CCC1(c2ccccc2)OC(=O)C(C#N)=C1c1ccccc1 (stereo unspecified) | > 100 | > 100 µM | > 100 µM | > 100 µM | > 100 µM | 74.1 µM | > 100 µM | > 100 µM | > 100 µM |  |  |  |  |  |  |  |  |  |  | 
Cc1cc(Cl)ccc1N=C1NC(=O)C(CC(=O)Nc2cccc(Cl)c2)S1 (stereo unspecified) | > 100 | > 100 µM | > 100 µM | > 100 µM | > 100 µM | > 100 µM | > 100 µM | > 100 µM | > 100 µM |  |  |  |  |  |  |  |  |  |  | 
COC(=O)c1c(C)nc(C)c2c1C(=O)C(Br)=C(NCc1ccccc1)C2=O | 13.4 | 4.81 µM | 8.01 µM | 6.63 µM | 9.23 µM |  | 10.7 µM | 3.19 µM | 11.5 µM | 2.93 | 2.06 µM | 2.85 µM | 2.52 µM |  | 3.39 | 2.26 | 5 µM | 1.62 | 2.94 µM | 3.04
C[N+](C)(C)CC1CCC(C[N+](C)(C)C)C1=NO (stereo unspecified) | > 100 | > 100 µM | > 100 µM | > 100 µM | > 100 µM | > 100 µM | > 100 µM | > 100 µM |  |  |  |  |  |  |  |  |  |  |  | 
Cc1c(Cl)ccc2c1NC(=O)C2(O)CC(=O)c1ccc(Cl)cc1 (stereo unspecified) | > 100 | > 100 µM | > 100 µM | > 64.2 µM | > 100 µM | > 100 µM | > 53.1 µM | > 55.9 µM | > 63.3 µM |  |  |  |  |  |  |  |  |  |  | 
COc1cc(C(=O)c2cnc(-c3c[nH]c4cccc(C)c34)[nH]2)cc(OC)c1OC | > 100 |  | 0.00874 µM | 30.7 µM | > 100 µM | 36.8 µM | > 100 µM |  | 35.4 µM | 0.00482 |  | 0.00289 µM | 0.00745 µM | 0.00257 µM | 0.00416 |  |  | 0.332 | 0.00618 µM | 0.00505
N#C/C(=C\c1ccc(O)cc1)C(N)=O | > 100 | > 100 µM | > 100 µM | > 100 µM | > 100 µM | > 94.3 µM and 54.7 µM | > 100 µM | > 100 µM | > 100 µM |  |  |  |  | > 49.9 µM and 12.7 µM |  |  |  |  |  | 
CCOc1ccc(NC(=O)CC2SC(=Nc3ccc(C)cc3)NC2=O)cc1 (stereo unspecified) | > 100 | > 100 µM | > 100 µM |  | > 100 µM | > 100 µM | > 100 µM | > 100 µM | > 100 µM |  |  |  |  |  |  |  |  |  |  | 
